# Assay results from US20230265614A1, “WATER INSOLUBLE, HIGH MELTING POINT SACCHARIDE FATTY ACID ESTERS (SFAE)” (GREENTECH GLOBAL PTE. LTD., priority 2021, published 2023).
# Test: Solubility in water at 25° C. of specific SFAEs
# Type: physicochemical
# Details: water insoluble = does not dissolve in water at 25° C.
row,Solubility in Water at 25° C.,Substance
1,Insoluble,trehalose dimyristate
2,soluble,trehalose monolaurate
3,Insoluble,trehalose monomyristate
4,Insoluble,trehalose monostearate

# Second part, the substance before the results:
row,Substance,Solubility in Water at 25° C.
1,raffinose monolaurate,soluble
2,raffinose monostearate,soluble
3,trehalose dilaurate,Insoluble
4,trehalose dipalmitate,Insoluble
5,trehalose distearate,Insoluble
6,trehalose monopalmitate,Insoluble
